Patent US20130005696A1, “BUFADIENOLIDE DERIVATIVES, PREPARING PROCESS THEREOF, COMPOSITION COMPRISING THE SAME AND THE USE THEREOF” (priority 2011, published 2013)

Assays:
Type in all cases: in vivo, Balb/c nude mice
[1] = system: human-derived lung cancer H460 xenograft; test: Therapeutic effect against H460 xenograft in nude mice; conditions: QOD × 21 d
Method: (§1) This experiment is to investigate the in vivo inhibitory effect of II1E-01.HCl on growth of human-derived hepatic carcinoma HepG2 cell, human-derived breast carcinoma MDA-MB-231 cell, human-derived lung carcinoma H460 cell, human-derived colon carcinoma HCT-116 cell, human-derived […] MV-4-11 cell xenografts in nude mice.
(§2) Formulation of solvent control (5% anhydrous ethanol & 5% aqueous glucose solution): 2.5 mL anhydrous ethanol was added into a 50 mL tube, followed by addition of 47.5 mL 5% glucose solution for injection followed by shaking, and stored at room temperature before use.
(§3) Formulation of the preparations of the compounds to be tested: formulations with concentrations of 0.4 mg/mL and 0.6 mg/mL were prepared respectively. An appropriate amount of II1E-01.HCl was weighted and put into a 50 mL tube, followed by addition of corresponding volume of solvent to get the desired concentration and mixed using a vortex mixer. After the solid was dissolved completely, the solution was subpackaged into 4 mL vials and stored at refrigerated condition (2-8° C.) until use.
(§4) Experimental animals: Balb/c nude mice (male, six weeks old).
NCI-H460 xenograft model was established by tumor implantation. 19 days after the implantation, the tumor size reached about 210 mm^3. The mice bearing the tumor were grouped by randomized block method according to the tumor size into 3 groups, which contain 10 mice in each group and include the group of solvent control, and groups of middle (4 mg/kg) and high (6 mg/kg) dosages of the testing compound II1E-01.HCl. In the solvent control group, 5% glucose solution was administered intravenously at tail once every other day (QOD). The testing compound was administered intravenously at tail once every other day (QOD). The animals were given the drugs for three weeks, during which the growth of tumor and the body weight of the mice were observed.
After continuously administering for 21 days (the 40th day after the implantation), the tumor weight and inhibition rate were calculated, and results are listed in Table 7.

[2] = system: human-derived colon carcinoma HCT-116 xenograft; test: Therapeutic effect against HCT-116 xenograft in nude mice; conditions: QOD × 14 d
Method: as §1, §2, §3, §4
HCT116 cells were in vitro cultured to be proliferated. The cells in the log phase of growth were collected, resuspended in RPMI-1640 serum-free medium, and then implanted subcutaneously into the axilla of the right forelimb of nude mice. After 14 days, the tumor size reached about 470 mm^3. The mice bearing the tumor were grouped by randomized block method according to the tumor size into 3 groups, including the group of solvent control and groups of 4 mg/kg and 6 mg/kg dosages of the testing compound II1E-01.HCl. In the solvent control group, glucose injection was administered intravenously at tail once every other day (QOD). The testing compound II1E-01.HCl was administered intravenously (iv) at tail once every other day (QOD). The animals were given the drugs for 14 days, during which, the growth of tumor and the body weight of the mice were observed.
After continuously administering for 14 days (the 28th day after the implantation), the tumor weight and inhibition rate were calculated, and results are listed in Table 8.

[3] = system: human-derived breast carcinoma MDA-MB-231 xenograft; test: Therapeutic effect against MDA-MB-231 xenograft in nude mice; conditions: QOD × 7 d
Method: as §1, §2, §3, §4
19 days after MDA-MB-231 cells were implanted, the tumor size reached about 617 mm^3. The mice bearing the tumor were grouped and administered. The groups of II1E-01.HCl were administered once every other day (QOD), and the solvent control group was administered with the solvent control solution. After completion of the experiment, the tumor weight and the inhibition rate were calculated, and the results are summarized in Table 6. The high and middle dosage groups have significant inhibitory activities against the growth of MDA-MB-231 xenograft, and the effect depends on the amount obviously.
The tumor in this experiment had been allowed to grow to reach a relative bigger size before drug administration (the tumor size before drug administration was about 600 mm^3 while generally the tumor size was only 200-300 mm^3 before drug administration), which corresponds to a middle- or advanced-stage cancer.

[4] = 4 mg/kg iv, listed as II1E-01.HCl, 4 mg/kg
[5] = 6 mg/kg iv, listed as II1E-01.HCl, 6 mg/kg

SMILES: C[C@]12CC[C@H](OC(=O)NC3CCNCC3)C[C@H]1CC[C@@H]1[C@@H]2CC[C@]2(C)[C@@H](c3ccc(=O)oc3)CC[C@]12O.Cl [II1E-01•HCl]
- Tumor Weight(g) Mean ± SE ([1]; 4 mg/kg iv): 0.5125 ± 0.0307 g
- Inhibition Rate (%) ([1]; 4 mg/kg iv, 4 mg/kg): 61.94%
- Inhibition Rate (%) [1, 4]: 61.94%
- Tumor Weight(g) Mean ± SE ([1]; 6 mg/kg iv): 0.3246 ± 0.0692 g
- Inhibition Rate (%) ([1]; 6 mg/kg iv, 6 mg/kg): 75.90%
- Inhibition Rate (%) [1, 5]: 75.90%
- Tumor Weight(g) Mean ± SE ([2]; 4 mg/kg iv): 0.8017 ± 0.0480 g
- Inhibition Rate (%) ([2]; 4 mg/kg iv, 4 mg/kg): 36.82%
- Inhibition Rate (%) [2, 4]: 36.82%
- Tumor Weight(g) Mean ± SE ([2]; 6 mg/kg iv): 0.4147 ± 0.0212 g
- Inhibition Rate (%) ([2]; 6 mg/kg iv, 6 mg/kg): 67.33%
- Inhibition Rate (%) [2, 5]: 67.33%
- Inhibition Rate (%) ([3]; 2 mg/kg iv): 16.36%
- Tumor Weight(g) Mean ± SE ([3]; 2 mg/kg iv): 2.6063 ± 0.2731 g
- Inhibition Rate (%) ([3]; 4 mg/kg iv): 33.99%
- Tumor Weight(g) Mean ± SE ([3]; 4 mg/kg iv): 2.0569 ± 0.1340 g
- Inhibition Rate (%) ([3]; 6 mg/kg iv): 52.23%
- Tumor Weight(g) Mean ± SE ([3]; 6 mg/kg iv): 1.4887 ± 0.1763 g
